Test results: US8431563B2 (priority 2010, dated 2013)
pEC50, pIC50: −log10 of the molar value. Counter-ions that a name gives are not always drawn.

Each compound was assayed against T1, interaction between glucokinase (GK) and glucokinase regulatory protein (GKRP) (Homo sapiens, UniProt Q14397) (assay: biochemical). Conditions: GK-GKRP IC50 (Binding), avi-tagged GKRP, GK-fluorescein, AlphaScreen beads.
T1 sequence (Q14397 1-625): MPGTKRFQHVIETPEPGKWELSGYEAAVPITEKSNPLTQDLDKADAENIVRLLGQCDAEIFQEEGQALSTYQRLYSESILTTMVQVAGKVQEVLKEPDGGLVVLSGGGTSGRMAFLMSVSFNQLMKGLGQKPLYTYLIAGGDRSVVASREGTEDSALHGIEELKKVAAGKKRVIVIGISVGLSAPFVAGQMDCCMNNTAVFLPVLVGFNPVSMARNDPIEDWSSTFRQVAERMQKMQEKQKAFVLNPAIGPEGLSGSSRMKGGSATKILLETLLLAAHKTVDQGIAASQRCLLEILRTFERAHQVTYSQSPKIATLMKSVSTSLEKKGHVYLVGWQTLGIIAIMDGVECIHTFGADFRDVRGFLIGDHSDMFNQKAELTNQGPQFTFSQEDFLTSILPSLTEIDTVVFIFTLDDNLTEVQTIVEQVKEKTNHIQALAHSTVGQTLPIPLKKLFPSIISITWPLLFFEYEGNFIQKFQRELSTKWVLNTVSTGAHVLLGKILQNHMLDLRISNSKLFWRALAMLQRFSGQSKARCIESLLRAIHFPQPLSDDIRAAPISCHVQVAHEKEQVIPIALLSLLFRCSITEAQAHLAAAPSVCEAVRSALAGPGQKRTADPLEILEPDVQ
Type: binding
Procedure: GK-GKRP Binding Assay Protocol
This assay is used to directly measure the interaction between glucokinase (GK) and glucokinase regulatory protein (GKRP). Begin by preparing the following solutions. Assay Buffer: 20 mM Tris, pH 7.5/0.05% BSA/1 mM DTT/1 μM sorbitol-6-phosphate. […] Combine the following reagents in a white 96-well half area plate. Pipette 14 μl of the diluted avi-tagged GKRP into each well. Add 1 μl of compound to be tested and incubate at room temperature for 20 minutes. After 20 minutes, add 5 μl of assay buffer containing 6 nM GK-fluorescein. […] Incubate in a dark room for 2 hours at room temperature. After 2 hours read the plate using an Envision plate reader (Perkin Elmer, Waltham Mass.).
Compound `CC(O)(c1ccc(N2CCN(S(=O)(=O)c3cccs3)C[C@@H]2CNC2CC2)cc1)C(F)(F)F` (mixture of isomers) [Example 199, 2-(4-((2S)-2-((cyclopropylamino)methyl)-4-(2-thiophenylsulfonyl)-1-piperazinyl)phenyl)-1,1,1-trifluoro-2-propanol] has a pIC50 of 6.15.
`NCC#Cc1cc(C(O)(C(F)(F)F)C(F)(F)F)ccc1N1CCN(S(=O)(=O)c2cccs2)CC1` [Example 159, 2-(3-(3-amino-1-propyn-1-yl)-4-(4-(2-thiophenylsulfonyl)-1-piperazinyl)phenyl)-1,1,1,3,3,3-hexafluoro-2-propanol trifluoroacetate] gave a pIC50 of 5.72.

Same assay, conditions: avi-tagged GKRP, GK-fluorescein, AlphaScreen beads; read-out: GK-GKRP IC50 (Binding)
Compound “2-(4-((2S)-4-((5-amino-2-thiophenyl)sulfonyl)-2-(((3S)-3-methyl-4-morpholinyl)methyl)-1-piperazinyl)phenyl)-1,1,1,3,3,3-hexafluoro-2-propanol [Example 225]” has a pIC50 of 8.15.
For `O=S(=O)(c1ccccc1)N1CCN(c2ncc(C(O)(C(F)(F)F)C(F)(F)F)cn2)[C@@H](CN2C3COCC2C(O)C3)C1` (mixture of isomers) [Example 80, 8-(((2S)-4-(phenylsulfonyl)-1-(5-(2,2,2-trifluoro-1-hydroxy-1-(trifluoromethyl)ethyl)-2-pyrimidinyl)-2-piperazinyl)methyl)-3-oxa-8-azabicyclo[3.2.1]octan-6-ol], the pIC50 was 6.90.
In the case of `CN(Cc1cn(C)cn1)C[C@H]1CN(S(=O)(=O)c2cccs2)CCN1c1ccc(C(C)(O)C(F)(F)F)cc1` (mixture of isomers) [Example 121, 1,1,1-trifluoro-2-(4-((2S)-2-((methyl((1-methyl-1H-imidazol-4-yl)methyl)amino)methyl)-4-(2-thiophenylsulfonyl)-1-piperazinyl)phenyl)-2-propanol], the pIC50 was 6.28.
`CC(O)(c1ccc(N2CCN(S(=O)(=O)c3cccs3)C[C@@H]2CN2CCNC(=O)C2)cc1)C(F)(F)F` (mixture of isomers) [Example 179, 4-(((2S)-4-(2-thiophensulfonyl)-1-(4-(2,2,2-trifluoro-1-hydroxy-1-methylethyl)phenyl)-2-piperazinyl)methyl)-2-piperazinone] gave a pIC50 of 6.27.
`CC(O)(c1ccc(N2CCN(S(=O)(=O)c3cccs3)C[C@@H]2CN(C2CCC2)S(=O)(=O)c2cccnc2)cc1)C(F)(F)F` (mixture of isomers) [Example 213, N-cyclobutyl-N-(((2R)-4-(2-thiophenylsulfonyl)-1-(4-(2,2,2-trifluoro-1-hydroxy-1-methylethyl)phenyl)-2-piperazinyl)methyl)-3-pyridinesulfonamide] was tested, and the pIC50 was 6.03.
Work on `CC(c1ccccc1)N(C[C@H]1CN(S(=O)(=O)c2cccs2)CCN1c1ccc(C(C)(O)C(F)(F)F)cc1)S(C)(=O)=O` (mixture of isomers) [Example 222, N-(1-phenylethyl)-N-(((2R)-4-(2-thiophenylsulfonyl)-1-(4-(2,2,2-trifluoro-1-hydroxy-1-methylethyl)phenyl)-2-piperazinyl)methyl)methanesulfonamide] yielded a pIC50 of 6.17.
Work on `CCC(O)C#Cc1cc(C(O)(C(F)(F)F)C(F)(F)F)ccc1N1CCN(S(=O)(=O)c2cccs2)CC1` (racemic) [Example 154, 1-(2-(4-(2-thiophenylsulfonyl)-1-piperazinyl)-5-(2,2,2-trifluoro-1-hydroxy-1-(trifluoromethyl)ethyl)phenyl)-1-pentyn-3-ol] yielded a pIC50 of 5.97.
`CC(C)C(O)C#Cc1cc(C(O)(C(F)(F)F)C(F)(F)F)ccc1N1CCN(S(=O)(=O)c2cccs2)CC1` (racemic) [Example 156, 4-methyl-1-(2-(4-(2-thiophenylsulfonyl)-1-piperazinyl)-5-(2,2,2-trifluoro-1-hydroxy-1-(trifluoromethyl)ethyl)phenyl)-1-pentyn-3-ol] gave a pIC50 of 5.54.
In the case of `COC(C#Cc1cc(C(O)(C(F)(F)F)C(F)(F)F)ccc1N1CCN(S(=O)(=O)c2cccs2)CC1)C(C)C` (racemic) [Example 157, 1,1,1,3,3,3-hexafluoro-2-(3-(3-methoxy-4-methyl-1-pentyn-1-yl)-4-(4-(2-thiophenylsulfonyl)-1-piperazinyl)phenyl)-2-propanol], the pIC50 was 6.18.
`CCC(O)C#Cc1cc(C(O)(C(F)(F)F)C(F)(F)F)ccc1N1CCC(S(=O)(=O)c2ccccc2)CC1` (racemic) [Example 162, 1-(2-(4-(phenylsulfonyl)-1-piperidinyl)-5-(2,2,2-trifluoro-1-hydroxy-1-(trifluoromethyl)ethyl)phenyl)-1-pentyn-3-ol] gave a pIC50 of 5.29.
`COc1cccc(CC2CN(S(=O)(=O)c3cccs3)CCN2c2ccc(C(O)(C(F)(F)F)C(F)(F)F)cc2)c1` (racemic) [Example 173, 1,1,1,3,3,3-hexafluoro-2-(4-(2-(3-methoxybenzyl)-4-(thiophen-2-ylsulfonyl)piperazin-1-yl)phenyl)-2-propanol] was tested, and the pIC50 was 6.27.
`COc1ccc(CC2CN(S(=O)(=O)c3cccs3)CCN2c2ccc(C(O)(C(F)(F)F)C(F)(F)F)cc2)cc1` (racemic) [Example 175, 1,1,1,3,3,3-hexafluoro-2-(4-(2-(4-methoxybenzyl)-4-(thiophen-2-ylsulfonyl)piperazin-1-yl)phenyl)-2-propanol] was tested, and the pIC50 was 5.54.
For `O=S(=O)(c1cccs1)N1CCN(c2ccc(C(O)(C(F)(F)F)C(F)(F)F)cc2)C(Cc2ccc(O)cc2)C1` (racemic) [Example 177, 4-((1-(4-(1,1,1,3,3,3-hexafluoro-2-hydroxypropan-2-yl)phenyl)-4-(thiophen-2-ylsulfonyl)piperazin-2-yl)methyl)phenol], the pIC50 was 6.10.
Work on `CC(O)(c1ccc(N2CCN(S(=O)(=O)c3cccs3)C[C@@H]2C[S+]([O-])c2cccc(F)c2)cc1)C(F)(F)F` (single isomer, unassigned) [Example 189 Peak#2] yielded a pIC50 of 6.14.
`CC(O)(c1ccc(N2CCN(S(=O)(=O)c3cccs3)C[C@@H]2C[S+]([O-])c2cccc(F)c2)cc1)C(F)(F)F` (single isomer, unassigned) [Example 189 Peak#3] was tested, and the pIC50 was 6.27.
With `C[C@H]1COCCN1C[C@H]1CN(S(=O)(=O)c2cccs2)CCN1c1ccc(C(O)(C(F)(F)F)C(F)(F)F)cc1` [Example 132, 1,1,1,3,3,3-hexafluoro-2-(4-((2S)-2-(((3S)-3-methyl-4-morpholinyl)methyl)-4-(2-thiophenylsulfonyl)-1-piperazinyl)phenyl)-2-propanol] the pIC50 was 8.22.
Compound `C[C@H]1CN(S(=O)(=O)c2cnc(N)s2)CCN1c1ncc(C(O)(C(F)(F)F)C(F)(F)F)cn1` [Example 147, 2-(2-((2S)-4-((2-amino-1,3-thiazol-5-yl)sulfonyl)-2-methyl-1-piperazinyl)-5-pyrimidinyl)-1,1,1,3,3,3-hexafluoro-2-propanol] has a pIC50 of 6.00.
Work on `CC(C)(C)OC(=O)NCC#Cc1cc(C(O)(C(F)(F)F)C(F)(F)F)ccc1N1CCN(S(=O)(=O)c2cccs2)CC1` [Example 158, tert-butyl (3-(2-(4-(2-thiophenylsulfonyl)-1-piperazinyl)-5-(2,2,2-trifluoro-1-hydroxy-1-(trifluoromethyl)ethyl)phenyl)-2-propyn-1-yl)carbamate] yielded a pIC50 of 6.16.

Each compound was assayed against T2, GKRP (Glucokinase Regulatory Protein) with human His-hepatic GK (Homo sapiens, UniProt Q14397) (assay: biochemical). Conditions: 13C-glucose-6-phosphate formation; 280 nM GKRP (10×), 30 nM GK (5×); read-out: GK-GKRP EC50 (LC MS/MS-2).
T2 sequence (Q14397 1-625): T1 sequence (Q14397 1-625)
Procedure: GKRP LC MS/MS-2 Biochemical Assay
This assay is used to directly measure the formation of ^13C-glucose-6-phosphate from ^13C-glucose by LC MS/MS. Begin by preparing the following solutions: Compound Buffer (CB): 50 mM Tris, pH 7.5/4 mM MgCl2/6% DMSO/fresh 10 mM DTT from 1M frozen stock. Enzyme Buffer (EB): 50 mM Tris, pH 7.5/4 mM MgCl2/6% DMSO/fresh 0.1% BSA/fresh 0.01% Brij-35 (10% BSA and 1% Brij-35 stock). GK (Glucokinase) Working Stock (5×): Dilute human His-hepatic GK to 30 nM in EB buffer. […] After 30 minutes add 10 μl of GK Working Stock (5×). Re-seal the plate and incubate for another 30 minutes at room temperature while mixing. After the second 30 minutes, stop the reaction by the addition of 50 μl of 100% acetonitrile, seal, and mix for 5-10 minutes. Run 10 μl of this sample through the LC MS/MS (API 3200, Applied Biosystems, Carlsbad, Calif.).
With “2-(4-((2S)-4-((5-amino-2-thiophenyl)sulfonyl)-2-(((3S)-3-methyl-4-morpholinyl)methyl)-1-piperazinyl)phenyl)-1,1,1,3,3,3-hexafluoro-2-propanol [Example 225]” the pEC50 was 7.72.
`O=S(=O)(c1ccccc1)N1CCN(c2ncc(C(O)(C(F)(F)F)C(F)(F)F)cn2)[C@@H](CN2C3COCC2C(O)C3)C1` (mixture of isomers) [Example 80, 8-(((2S)-4-(phenylsulfonyl)-1-(5-(2,2,2-trifluoro-1-hydroxy-1-(trifluoromethyl)ethyl)-2-pyrimidinyl)-2-piperazinyl)methyl)-3-oxa-8-azabicyclo[3.2.1]octan-6-ol] gave a pEC50 of 6.87.
With `C[C@H]1COCCN1C[C@H]1CN(S(=O)(=O)c2cccs2)CCN1c1ccc(C(O)(CO)C(F)(F)F)cc1` (mixture of isomers) [Example 83, 3,3,3-trifluoro-2-(4-((2S)-2-(((3S)-3-methyl-4-morpholinyl)methyl)-4-(2-thiophenylsulfonyl)-1-piperazinyl)phenyl)-1,2-propanediol] the pEC50 was 7.72.
`CC(C)C1C(=O)NCCN1C[C@H]1CN(S(=O)(=O)c2ccc(N)s2)CCN1c1ncc(C(O)(C(F)(F)F)C(F)(F)F)cn1` (single isomer, unassigned) [Example 184 Peak #2] gave a pEC50 of 7.60.
